Assay results reported in the CombiSolv-Exp solvation set (Vermeire and Green 2021).

Assay: solvent given as SMILES

O=C(O)c1ccc([N+](=O)[O-])cc1
Conditions | solvation free energy, 298 K [kcal/mol]
in C1CCOC1 | -13.3
in C1COCCO1 | -13.1
in CC(C)(C)O | -12.4
in CC(C)CCO | -11.9
in CC(C)CO | -11.9
in CC(C)O | -12.2
in CC(C)OC(C)C | -11.3
in CC(C)OCCO | -12.6
in CC(O)COC(C)(C)C | -12.6
in CCC(C)O | -12.1
in CCCC(C)O | -12
in CCCCCCCCCCO | -11.7
in CCCCCCCCO | -11.8
in CCCCCCCO | -11.9
in CCCCCCO | -12
in CCCCCO | -12
in CCCCCOC(C)=O | -11.7
in CCCCO | -12
in CCCCOC(C)=O | -11.9
in CCCCOCCO | -12.5
in CCCO | -12.2
in CCCOCCO | -12.6
in CCO | -12.3
in CCOC(C)=O | -12.2
in CCOCC | -12.2
in CCOCCO | -12.8
in CN(C)C=O | -12.8
in CO | -12.5
in COC(C)=O | -12.4
in COC(C)CCO | -12.6
in O | -9.44

N#Cc1cccc(O)c1
Conditions | solvation free energy, 298 K [kcal/mol]
in O | -9.65

COCC(OC)(OC)OC
Conditions | solvation free energy, 298 K [kcal/mol]
in O | -5.73

COC=O
Conditions | solvation free energy, 298 K [kcal/mol]
in C=CCCCCCCCCCCCCCC | -1.95
in CC(=O)N(C)C | -3.41
in CCCCCCCCCCCCCCCC | -1.94
in CCCCN(C=O)CCCC | -2.97
in CCOCCO | -3.08
in CN1CCCC1=O | -3.71
in CNC(C)=O | -3.15
in CS(C)=O | -3.28
in NC=O | -3.07
in O | -2.78
in [2H]O[2H] | -2.82

CC(C)Cc1ccc(C(C)C(=O)O)cc1 (centres undefined)
Conditions | solvation free energy, 298 K [kcal/mol]
in CC(C)CO | -13.2
in CC(C)O | -13.4
in CCC(C)O | -13.2
in CCCCCCCCCCO | -13
in CCCCCCCO | -13.1
in CCCCCCO | -13.2
in CCCCCO | -13.1
in CCCCO | -13.1
in CCCO | -13.2
in CCO | -13.1
in CN(C)C=O | -13.1
in CO | -13.1
in Clc1ccccc1 | -11.9
in NC=O | -10.9
in O | -7

ON=C1CCCCC1
Conditions | solvation free energy, 298 K [kcal/mol]
in CCCCCC | -6.16

O=NN1CCOCC1
Conditions | solvation free energy, 298 K [kcal/mol]
in O | -7.78

OC1CCCC1
Conditions | solvation free energy, 298 K [kcal/mol]
in C1COCCO1 | -6.33
in CC(C)=O | -6.28
in O | -5.5

CC(C)CCCCCCOC(=O)c1ccccc1C(=O)OCCCCCCC(C)C
Conditions | solvation free energy, 298 K [kcal/mol]
in O | -6.14

[2H]O[2H]
Conditions | solvation free energy, 298 K [kcal/mol]
in C1CCCCC1 | -0.54
in CCO | -5.24
in ClC(Cl)(Cl)Cl | -1.14
in S=C=S | -0.75

CNCCc1ccc(OC)cc1
Conditions | solvation free energy, 298 K [kcal/mol]
in C=CCCCCCCC=C | -9.47
in O | -7.94

C=CCCC
Conditions | solvation free energy, 298 K [kcal/mol]
in C=CCCCCCCCCCCCCCC | -2.77
in CC#N | -2.5
in CC(=O)N(C)C | -2.35
in CCC#N | -2.86
in CCC(C)=O | -2.88
in CCCC#N | -2.56
in CCCCC(CC)COC(=O)CCCCC(=O)OCC(CC)CCCC | -2.66
in CCCCCCC | -3.15
in CCCCCCCC | -3.1
in CCCCCCCCO | -2.63
in CCCCO | -2.65
in CCCCOC(=O)c1ccccc1C(=O)OCCCC | -2.7
in CCN1CCCC1=O | -2.46
in CCN(CC)C(C)=O | -2.62
in CCNC(C)=O | -2.46
in CCNC=O | -2.26
in CCOC(=O)c1ccccc1C(=O)OCC | -2.33
in CCOC(C)=O | -2.96
in CN1CCCC1=O | -2.25
in CN1CCCCC1=O | -2.41
in CN(C)C=O | -2.32
in CNC(C)=O | -2.22
in CNC=O | -1.98
in COC(C)=O | -2.88
in Cc1ccc(C)cc1 | -3.11
in ClCCCl | -2.86
in Clc1ccccc1 | -3.01
in N#Cc1ccccc1 | -2.61
in O | 1.68
in O=C1CCCCC1 | -2.77
in O=C1CCCO1 | -1.95
in O=CN1CCOCC1 | -1.84
in OCCOCCO | -1.23
